Experimental data taken from PubChem BioAssay (NCI).
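Results reflect a 48-hour exposure of cells in 96-well plates to compound at five concentrations. TGI marks complete inhibition of growth.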

How the values were obtained:
Assay in all cases: NCI tumour cell line growth inhibition, 48 h
786-0 renal = tested on: 786-0 renal
A549 NSCLC = tested on: A549 NSCLC
ACHN renal = tested on: ACHN renal
BT-549 breast = tested on: BT-549 breast
CAKI-1 renal = tested on: CAKI-1 renal
CCRF-CEM leukemia = tested on: CCRF-CEM leukemia
COLO 205 colon = tested on: COLO 205 colon
DU-145 prostate = tested on: DU-145 prostate
EKVX NSCLC = tested on: EKVX NSCLC
HCT-116 colon = tested on: HCT-116 colon
HCT-15 colon = tested on: HCT-15 colon
HL-60(TB) leukemia = tested on: HL-60(TB) leukemia
HOP-62 NSCLC = tested on: HOP-62 NSCLC
HOP-92 NSCLC = tested on: HOP-92 NSCLC
HS 578T breast = tested on: HS 578T breast
HT29 colon = tested on: HT29 colon
IGROV1 ovarian = tested on: IGROV1 ovarian
K-562 leukemia = tested on: K-562 leukemia
KM12 colon = tested on: KM12 colon
LOX IMVI melanoma = tested on: LOX IMVI melanoma
M14 melanoma = tested on: M14 melanoma
MALME-3M melanoma = tested on: MALME-3M melanoma
MCF7 breast = tested on: MCF7 breast
MDA-MB-435 = tested on: MDA-MB-435
MDA-N = tested on: MDA-N
MOLT-4 leukemia = tested on: MOLT-4 leukemia
NCI-H226 lung = tested on: NCI-H226 lung
NCI-H23 lung = tested on: NCI-H23 lung
NCI-H460 lung = tested on: NCI-H460 lung
NCI-H522 lung = tested on: NCI-H522 lung
NCI/ADR-RES ovarian = tested on: NCI/ADR-RES ovarian
OVCAR-3 ovarian = tested on: OVCAR-3 ovarian
OVCAR-4 ovarian = tested on: OVCAR-4 ovarian
OVCAR-5 ovarian = tested on: OVCAR-5 ovarian
OVCAR-8 ovarian = tested on: OVCAR-8 ovarian
PC-3 prostate = tested on: PC-3 prostate
RPMI-8226 leukemia = tested on: RPMI-8226 leukemia
SF-268 CNS = tested on: SF-268 CNS
SF-295 CNS = tested on: SF-295 CNS
SK-MEL-2 melanoma = tested on: SK-MEL-2 melanoma
SK-MEL-28 melanoma = tested on: SK-MEL-28 melanoma
SK-MEL-5 melanoma = tested on: SK-MEL-5 melanoma
SK-OV-3 ovarian = tested on: SK-OV-3 ovarian
SN12C renal = tested on: SN12C renal
SNB-19 CNS = tested on: SNB-19 CNS
SNB-75 CNS = tested on: SNB-75 CNS
SR leukemia = tested on: SR leukemia
SW-620 colon = tested on: SW-620 colon
TK-10 renal = tested on: TK-10 renal
U251 CNS = tested on: U251 CNS
UACC-257 melanoma = tested on: UACC-257 melanoma
UACC-62 melanoma = tested on: UACC-62 melanoma
UO-31 renal = tested on: UO-31 renal
A498 renal = tested on: A498 renal
MDA-MB-231 breast = tested on: MDA-MB-231 breast
HCC-2998 colon = tested on: HCC-2998 colon
RXF 393 renal = tested on: RXF 393 renal
SF-539 CNS = tested on: SF-539 CNS
T-47D breast = tested on: T-47D breast

Measured: TGI

CC(=O)Oc1c(C)cc(-c2cc(C)c(OC(C)=O)c(C)c2)cc1C
93.8 µM: SF-295 CNS
84.6 µM: UO-31 renal
39.5 µM: U251 CNS
60.9 µM: SNB-75 CNS
38.4 µM: SK-OV-3 ovarian
98.2 µM: NCI-H522 lung
42.8 µM: NCI-H23 lung
60.1 µM: HS 578T breast
94.4 µM: NCI-H226 lung
91.6 µM: TK-10 renal
10.8 µM: MDA-MB-435
25.6 µM: MDA-N
not listed: A498 renal | MDA-MB-231 breast | HCC-2998 colon | RXF 393 renal | SF-539 CNS | T-47D breast
> 100 µM: all other assays above

NCC(O)CNCC/C=C\C/C=C\C/C=C\C/C=C\C/C=C\C/C=C\CCCCC/C=C\CCNCC(O)CN (stereo unspecified)
3.07 µM: 786-0 renal
7.47 µM: BT-549 breast
3.72 µM: UO-31 renal
14 µM: SK-MEL-28 melanoma
2.15 µM: EKVX NSCLC
4.29 µM: SF-295 CNS
5.59 µM: SK-OV-3 ovarian
3.09 µM: MDA-N
2.82 µM: NCI/ADR-RES ovarian
4.43 µM: UACC-257 melanoma
3.34 µM: A498 renal
2.74 µM: HS 578T breast
2.96 µM: TK-10 renal
3.42 µM: OVCAR-3 ovarian
4.34 µM: MALME-3M melanoma
3.21 µM: OVCAR-8 ovarian
3.61 µM: OVCAR-4 ovarian
3.35 µM: ACHN renal
3.63 µM: CAKI-1 renal
3.26 µM: DU-145 prostate
3.41 µM: COLO 205 colon | OVCAR-5 ovarian
3.03 µM: HCT-15 colon | SN12C renal
> 100 µM: K-562 leukemia
3.53 µM: HOP-62 NSCLC
3.18 µM: HCT-116 colon | MDA-MB-231 breast
3.2 µM: SNB-75 CNS
13.4 µM: NCI-H226 lung
3.49 µM: PC-3 prostate

CC(C)C1CC=NN1C(=O)OC(C)(C)C (stereo unspecified)
not listed: BT-549 breast | MALME-3M melanoma | OVCAR-4 ovarian | PC-3 prostate | SK-MEL-2 melanoma | SK-MEL-28 melanoma | SNB-19 CNS | U251 CNS | MDA-MB-231 breast
> 100 µM: all other assays above

CCN(CC)CCN1CCNc2c3cc(OC)ccc3nc3c([N+](=O)[O-])ccc1c23
2.23 µM: MDA-MB-231 breast
2.92 µM: SK-MEL-5 melanoma
5.7 µM: UACC-257 melanoma
1.19 µM: SR leukemia
2.12 µM: HL-60(TB) leukemia
5.4 µM: SW-620 colon
4.68 µM: EKVX NSCLC
3.23 µM: MALME-3M melanoma
1.61 µM: 786-0 renal
9.25 µM: IGROV1 ovarian
6.21 µM: KM12 colon
> 10 µM: CAKI-1 renal | DU-145 prostate | K-562 leukemia | OVCAR-8 ovarian | SF-268 CNS | SK-OV-3 ovarian | T-47D breast | TK-10 renal
2.32 µM: CCRF-CEM leukemia
1.42 µM: MOLT-4 leukemia
6.39 µM: HT29 colon
3.12 µM: OVCAR-4 ovarian
2.64 µM: HOP-62 NSCLC
2.11 µM: RXF 393 renal
2.36 µM: SN12C renal
4.28 µM: SF-295 CNS
6.18 µM: HOP-92 NSCLC
2.44 µM: NCI-H23 lung
2.03 µM: HCC-2998 colon
2.98 µM: MCF7 breast
3.21 µM: LOX IMVI melanoma
2.27 µM: MDA-N
2.47 µM: HCT-15 colon
2.69 µM: MDA-MB-435
6.43 µM: SNB-75 CNS
2.25 µM: PC-3 prostate
2.87 µM: RPMI-8226 leukemia
9.07 µM: A549 NSCLC

CCCCOC(=O)C(=O)C(CC(C(=O)Cc1ccccc1)c1ccccc1)C(=O)C=C(C)C (stereo unspecified)
not listed: K-562 leukemia | MALME-3M melanoma | RPMI-8226 leukemia | SR leukemia | A498 renal | T-47D breast
> 100 µM: all other assays above
